Results reported in patent US11814356B1, “Salt of cabozantinib” (Apotex Inc., priority 2023, dated 2023).

Key:
[1] = PXRD form stability of uncapped samples in a stability chamber; type: physicochemical
Method: Cabozantinib acesulfamate Form APO-I can be characterized by a PXRD diffractogram comprising, among other peaks, characteristic peaks, expressed in degrees 2θ (±0.2°), at 9.5°, 11.2° and 19.7°. Preferably, the PXRD diffractogram further comprises at least three peaks, expressed in degrees 2θ (±0.2°), selected from the group consisting of 9.1°, 10.2°, 12.7°, 15.9°, 17.4°, and 18.1°. More preferably, the PXRD diffractogram further comprises peaks, expressed in degrees 2θ (±0.2°), at 9.1°, 10.2°, 12.7°, 15.9°, 17.4°, and 18.1°.
PXRD diffractograms were recorded on a Bruker D8 Discover powder X-ray diffractometer (Bruker AXS LLC, Karlsruhe, Germany). The sample holder was oscillated along x and y axes during the measurement. The generator was a Incoatec Microfocus Source (IμS) Cu tube (λ=1.54060 Å) with a voltage of 50 kV and current of 1.00 mA, using a divergence slit of 0.1 mm and collimator of 2.0 mm. For each sample, one frame was collected using a still scan with a PILATUS3 R 100K-A detector at the distance of 294.2 mm from the sample. Raw data were evaluated using the program DIFFRAC.EVA (Bruker AXS LLC, Karlsruhe, Germany).

[2] = pH-dependent; at a pH>3; cited from earlier work
[3] = cited from earlier work

SMILES	form stability ([1]; high temperature and high humidity)	change in the crystalline form (PXRD) ([1]; uncapped samples, 40° C./75% RH stability chamber, at least 4 weeks)	aqueous solubility [2]	permeability [3]
CC1=CC(=O)NS(=O)(=O)O1.COc1cc2nccc(Oc3ccc(NC(=O)C4(C(=O)Nc5ccc(F)cc5)CC4)cc3)c2cc1OC [cabozantinib acesulfamate Form APO-I, Cabozantinib Acesulfamate Form APO-I]	form stability	no change in the crystalline form occurred		
COc1cc2nccc(Oc3ccc(NC(=O)C4(C(=O)Nc5ccc(F)cc5)CC4)cc3)c2cc1OC [cabozantinib, N-(4-(6,7-dimethoxyquinolin-4-yloxy)phenyl)-N′-(4-fluorophenyl)cyclopropane-1,1-dicarboxamide]			very low solubility	high permeability
